{
  "source": "ChEMBL document CHEMBL4823300",
  "about": "“Design, synthesis and anticancer activity of sulfenylated imidazo-fused heterocycles” (Bioorg Med Chem Lett, 2021)",
  "key": {"HepG2 [1]": {"tested_on": "HepG2", "experiment": "Cell cycle arrest in human HepG2 cells assessed as accumulation at S phase at 10 uM (reference value: 4.66%)", "assay_type": "functional"}, "SK-MEL-28": {"tested_on": "SK-MEL-28", "experiment": "Anticancer activity against human SK-MEL-28 cells assessed as growth inhibition incubated for 48 hrs by MTT assay", "assay_type": "functional, cell-based", "conditions": "SK-MEL-28, 48 h"}, "HepG2 [2]": {"tested_on": "HepG2", "experiment": "Induction of apoptosis in human HepG2 cells assessed as necrotic cells at 10 uM incubated for 48 hrs by annexin V-FITC/propidium iodide (AV/PI) dual staining assay (reference value: 1.06%)", "assay_type": "functional"}, "HeLa": {"tested_on": "HeLa", "experiment": "Anticancer activity against human HeLa cells assessed as growth inhibition incubated for 48 hrs by MTT assay", "assay_type": "functional, cell-based"}, "HepG2 [3]": {"tested_on": "HepG2", "experiment": "Induction of apoptosis in human HepG2 cells assessed as decrease in mitochondrial membrane potential at 5 to 10 uM incubated for 48 hrs by JC-1 staining based assay relative to control", "assay_type": "functional, cell-based", "conditions": "dose 5-10 µM"}, "HepG2 [4]": {"tested_on": "HepG2", "experiment": "Induction of apoptosis in human HepG2 cells assessed as early apoptotic cells at 5 uM incubated for 48 hrs by annexin V-FITC/propidium iodide (AV/PI) dual staining assay (reference value: 3.87%)", "assay_type": "functional"}, "U-87 MG": {"tested_on": "U-87 MG", "experiment": "Anticancer activity against human U-87 MG cells assessed as growth inhibition incubated for 48 hrs by MTT assay", "assay_type": "functional, cell-based, U-87MG ATCC"}, "HepG2 [5]": {"tested_on": "HepG2", "experiment": "Induction of apoptosis in human HepG2 cells assessed as early apoptotic cells at 10 uM incubated for 48 hrs by annexin V-FITC/propidium iodide (AV/PI) dual staining assay (reference value: 3.87%)", "assay_type": "functional"}, "HEK293": {"tested_on": "HEK293", "experiment": "Anticancer activity against human HEK293 cells assessed as growth inhibition incubated for 48 hrs by MTT assay", "assay_type": "cell-based", "conditions": "HEK293, 48 h"}, "NIH3T3": {"tested_on": "NIH3T3", "experiment": "Anticancer activity against mouse NIH3T3 cells assessed as growth inhibition incubated for 48 hrs by MTT assay", "assay_type": "cell-based", "conditions": "NIH3T3, 48 h"}, "HepG2 [6]": {"tested_on": "HepG2", "experiment": "Anticancer activity against human HepG2 cells assessed as growth inhibition incubated for 48 hrs by MTT assay", "assay_type": "functional, cell-based", "conditions": "HepG2, 48 h"}, "HepG2 [7]": {"tested_on": "HepG2", "experiment": "Cell cycle arrest in human HepG2 cells assessed as accumulation at S phase at 5 uM (reference value: 4.66%)", "assay_type": "functional"}, "HepG2 [8]": {"tested_on": "HepG2", "experiment": "Cell cycle arrest in human HepG2 cells assessed as accumulation at G2/M phase at 10 uM (reference value: 3.72%)", "assay_type": "functional"}, "DU-145": {"tested_on": "DU-145", "experiment": "Anticancer activity against human DU-145 cells assessed as growth inhibition incubated for 48 hrs by MTT assay", "assay_type": "functional, cell-based", "conditions": "DU-145, 48 h"}, "HepG2 [9]": {"tested_on": "HepG2", "experiment": "Cell cycle arrest in human HepG2 cells assessed as accumulation at G2/M phase at 5 uM (reference value: 3.72%)", "assay_type": "functional"}, "HepG2 [10]": {"tested_on": "HepG2", "experiment": "Induction of apoptosis in human HepG2 cells assessed as late apoptotic cells at 5 uM incubated for 48 hrs by annexin V-FITC/propidium iodide (AV/PI) dual staining assay (reference value: 4.07%)", "assay_type": "functional"}, "HepG2 [11]": {"tested_on": "HepG2", "experiment": "Cell cycle arrest in human HepG2 cells assessed as accumulation at SubG1 phase at 5 uM (reference value: 7.13%)", "assay_type": "functional"}, "HepG2 [12]": {"tested_on": "HepG2", "experiment": "Induction of apoptosis in human HepG2 cells assessed as live cells at 10 uM incubated for 48 hrs by annexin V-FITC/propidium iodide (AV/PI) dual staining assay (reference value: 91.01%)", "assay_type": "functional"}, "HepG2 [13]": {"tested_on": "HepG2", "experiment": "Induction of apoptosis in human HepG2 cells assessed as live cells at 5 uM incubated for 48 hrs by annexin V-FITC/propidium iodide (AV/PI) dual staining assay (reference value: 91.01%)", "assay_type": "functional"}, "HepG2 [14]": {"tested_on": "HepG2", "experiment": "Induction of apoptosis in human HepG2 cells assessed as late apoptotic cells at 10 uM incubated for 48 hrs by annexin V-FITC/propidium iodide (AV/PI) dual staining assay (reference value: 4.07%)", "assay_type": "functional"}, "HepG2 [15]": {"tested_on": "HepG2", "experiment": "Cell cycle arrest in human HepG2 cells assessed as accumulation at G0/G1 phase at 10 uM (reference value: 92.33%)", "assay_type": "functional"}, "HepG2 [16]": {"tested_on": "HepG2", "experiment": "Cell cycle arrest in human HepG2 cells assessed as accumulation at G0/G1 phase at 5 uM (reference value: 92.33%)", "assay_type": "functional"}, "MDA-MB-231": {"tested_on": "MDA-MB-231", "experiment": "Anticancer activity against human MDA-MB-231 cells assessed as growth inhibition incubated for 48 hrs by MTT assay", "assay_type": "functional, cell-based", "conditions": "MDA-MB-231, 48 h"}, "HepG2 [17]": {"tested_on": "HepG2", "experiment": "Induction of apoptosis in human HepG2 cells assessed as necrotic cells at 5 uM incubated for 48 hrs by annexin V-FITC/propidium iodide (AV/PI) dual staining assay (reference value: 1.06%)", "assay_type": "functional"}, "HepG2 [18]": {"tested_on": "HepG2", "experiment": "Cell cycle arrest in human HepG2 cells assessed as accumulation at SubG1 phase at 10 uM (reference value: 7.13%)", "assay_type": "functional"}, "HepG2 [19]": {"tested_on": "HepG2", "experiment": "Induction of apoptosis in human HepG2 cells assessed as nuclear condensation at 5 to 10 uM incubated for 48 hrs by Hoechst staining based assay relative to control", "assay_type": "functional, cell-based", "conditions": "dose 5-10 µM"}, "A549": {"tested_on": "A549", "experiment": "Anticancer activity against human A549 cells assessed as growth inhibition incubated for 48 hrs by MTT assay", "assay_type": "functional, cell-based", "conditions": "A549, 48 h"}},
  "note": "Activity calls are given as the source filed them. No cut-off for these calls is given here.",
  "data": [
    {"smiles": "c1ccc(Sc2c(-c3cccc4ccccc34)nc3ccccn23)cc1", "values": [
      {"measurement": "Activity", "setting": "HepG2 [1]", "value": 0.36, "unit": "%"},
      {"measurement": "IC50", "setting": "SK-MEL-28", "value": "> 100", "unit": "µM"},
      {"measurement": "Activity", "setting": "HepG2 [2]", "value": 0.34, "unit": "%"},
      {"measurement": "IC50", "setting": "HeLa", "value": 33.1, "unit": "µM"},
      {"measurement": "Activity", "setting": "HepG2 [3]", "value": "Active"},
      {"measurement": "Activity", "setting": "HepG2 [4]", "value": 10.32, "unit": "%"},
      {"measurement": "IC50", "setting": "U-87 MG", "value": "> 100", "unit": "µM"},
      {"measurement": "Activity", "setting": "HepG2 [5]", "value": 25.45, "unit": "%"},
      {"measurement": "IC50", "setting": "HEK293", "value": "> 100", "unit": "µM"},
      {"measurement": "IC50", "setting": "NIH3T3", "value": "> 100", "unit": "µM"},
      {"measurement": "IC50", "setting": "HepG2 [6]", "value": 9.9, "unit": "µM"},
      {"measurement": "Activity", "setting": "HepG2 [7]", "value": 2.54, "unit": "%"},
      {"measurement": "Activity", "setting": "HepG2 [8]", "value": 25.53, "unit": "%"},
      {"measurement": "IC50", "setting": "DU-145", "value": 60.6, "unit": "µM"},
      {"measurement": "Activity", "setting": "HepG2 [9]", "value": 7.29, "unit": "%"},
      {"measurement": "Activity", "setting": "HepG2 [10]", "value": 11.9, "unit": "%"},
      {"measurement": "Activity", "setting": "HepG2 [11]", "value": 3.7, "unit": "%"},
      {"measurement": "Activity", "setting": "HepG2 [12]", "value": 55.27, "unit": "%"},
      {"measurement": "Activity", "setting": "HepG2 [13]", "value": 77.51, "unit": "%"},
      {"measurement": "Activity", "setting": "HepG2 [14]", "value": 18.94, "unit": "%"},
      {"measurement": "Activity", "setting": "HepG2 [15]", "value": 70.35, "unit": "%"},
      {"measurement": "Activity", "setting": "HepG2 [16]", "value": 86.33, "unit": "%"},
      {"measurement": "IC50", "setting": "MDA-MB-231", "value": 69.3, "unit": "µM"},
      {"measurement": "Activity", "setting": "HepG2 [17]", "value": 0.26, "unit": "%"},
      {"measurement": "Activity", "setting": "HepG2 [18]", "value": 8.52, "unit": "%"},
      {"measurement": "Activity", "setting": "HepG2 [19]", "value": "Active"},
      {"measurement": "IC50", "setting": "A549", "value": 17.9, "unit": "µM"}
    ]}
  ]
}
